pEC50: −log10 of the molar value.
Assays:
Assay type in all cases: cell-based
[1] = system: human dermal fibroblasts from LHON patients; test: Rescue of BSO-stressed fibroblasts from LHON patients; conditions: Fibroblast, LHON fibroblasts GM03858, BSO stress, read-out: protection against LHON, EC50
Procedure: (§1) An initial screen was performed to identify compounds effective for the amelioration of redox disorders. Test samples, 4 reference compounds (Idebenone, decylubiquinone, Trolox and α-tocopherol acetate), and solvent controls were tested for their ability to rescue FRDA fibroblasts stressed by addition of L-buthionine-(S,R)-sulfoximine (BSO), as described in Jauslin et al., Hum. Mol. Genet. 11(24):3055 (2002), Jauslin et al., FASEB J. 17:1972-4 (2003), and International Patent Application WO 2004/003565. […] This specific BSO-mediated cell death can be prevented by administration of antioxidants or molecules involved in the antioxidant pathway, such as α-tocopherol, selenium, or small molecule glutathione peroxidase mimetics. However, antioxidants differ in their potency, i.e. the concentration at which they are able to rescue BSO-stressed FRDA fibroblasts.
(§2) Test samples were screened according to the following protocol: A culture with FRDA fibroblasts was started from a 1 ml vial with approximately 500,000 cells stored in liquid nitrogen. Cells were propagated in 10 cm cell culture dishes by splitting every third day in a ratio of 1:3 until nine plates were available. Once confluent, fibroblasts were harvested. For 54 micro titer plates (96 well-MTP) a total of 14.3 million cells (passage eight) were re-suspended in 480 ml medium, corresponding to 100 μl medium with 3,000 cells/well. The remaining cells were distributed in 10 cm cell culture plates (500,000 cells/plate) for propagation. The plates were incubated overnight at 37° C. in a atmosphere with 95% humidity and 5% CO2 to allow attachment of the cells to the culture plate.
(§3) MTP medium (243 μl) was added to a well of the microtiter plate. The test compounds were unfrozen, and 7.5 μl of a 5 mM stock solution was dissolved in the well containing 243 μl medium, resulting in a 150 μM master solution. Serial dilutions from the master solution were made. The period between the single dilution steps was kept as short as possible (generally less than 1 second).
(§4) Plates were kept overnight in the cell culture incubator. The next day, 10 μl of a 10 mM BSO solution were added to the wells, resulting in a 1 mM final BSO concentration. Forty-eight hours later, three plates were examined under a phase-contrast microscope to verify that the cells in the 0% control (wells E1-H1) were clearly dead. The medium from all plates was discarded, and the remaining liquid was removed by gently tapping the plate inversed onto a paper towel.
(§5) 100 μl of PBS containing 1.2 μM Calcein AM were then added to each well. The plates were incubated for 50-70 minutes at room temperature. After that time the PBS was discarded, the plate gently tapped on a paper towel and fluorescence (excitation/emission wavelengths of 485 nm and 525 nm, respectively) was read on a Gemini fluorescence reader. Data was imported into Microsoft Excel (EXCEL is a registered trademark of Microsoft Corporation for a spreadsheet program) and used to calculate the EC50 concentration for each compound.
(§6) Compounds of the invention were screened as described in Example A, but substituting FRDA cells with Leber's Hereditary Optic Neuropathy (LHON) cells obtained from the Coriell Cell Repositories (Camden, N.J.; repository number GM03858). The compounds were tested for their ability to rescue human dermal fibroblasts from LHON patients from oxidative stress.

[2] = system: human dermal fibroblasts from Parkinson's disease patients; test: Rescue of BSO-stressed fibroblasts from Parkinson's disease patients; conditions: Fibroblast, PD fibroblasts AG20439, BSO stress, read-out: protection against PD, EC50
Procedure: as §1, §2, §3, §4, §5
as §6, with “Parkinson's Disease (PD)” for “Leber's Hereditary Optic Neuropathy (LHON)”, “AG20439).” for “GM03858).”, “Parkinson's disease” for “LHON”

[3] = system: Human dermal fibroblasts from Friedreich's Ataxia patients; test: Rescue of BSO-stressed FRDA fibroblasts (Calcein AM viability); conditions: FRDA fibroblasts GM04078, BSO stress, read-out: protection against FRDA, EC50
Procedure: as §1
MEM (a medium enriched in amino acids and vitamins, catalog no. 1-31F24-I) and Medium 199 (M199, catalog no. 1-21F22-I) with Earle's Balanced Salts, without phenol red, were purchased from Bioconcept. Fetal Calf Serum was obtained from PAA Laboratories. Basic fibroblast growth factor and epidermal growth factor were purchased from PeproTech. Penicillin-streptomycin-glutamine mix, L-buthionine (S,R)-sulfoximine, (+)-α-tocopherol acetate, decylubiquinone, and insulin from bovine pancreas were purchased from Sigma. Trolox (6-hydroxy-2,5,7,8-tetramethylchromane-2-carboxylic acid) was obtained from Fluka. Idebenone was obtained from Chemo Iberica. Calcein AM was purchased from Molecular Probes. Cell culture medium was made by combining 125 ml M 199 EBS, 50 ml Fetal Calf Serum, 100 U/ml penicillin, 100 μg/ml streptomycin, 2 mM glutamine, 10 μg/ml insulin, 10 ng/ml EGF, and 10 ng/ml bFGF; MEM EBS was added to make the volume up to 500 ml. A 10 mM BSO solution was prepared by dissolving 444 mg BSO in 200 ml of medium with subsequent filter-sterilization. During the course of the experiments, this solution was stored at +4° C. The cells were obtained from the Coriell Cell Repositories (Camden, N.J.; repository number GM04078) and grown in 10 cm tissue culture plates. Every third day, they were split at a 1:3 ratio.
The test samples were supplied in 1.5 ml glass vials. The compounds were diluted with DMSO, ethanol or PBS to result in a 5 mM stock solution. Once dissolved, they were stored at −20° C. Reference antioxidants (Idebenone, decylubiquinone, α-tocopherol acetate and trolox) were dissolved in DMSO.
as §2, §3
as §4, with “The medium from all plates was discarded, and the remaining liquid was removed by gently tapping the plate inversed onto a paper towel.” left out

[4] = system: human dermal fibroblasts from Huntington's patients; test: Rescue of BSO-stressed fibroblasts from Huntington's patients; conditions: Fibroblast, Huntington's fibroblasts GM 04281, BSO stress, read-out: protection against Huntington's, EC50
Procedure: as §1, §2, §3, §4, §5
as §6, with “tested using the screen” for “screened”, “Huntington's” for “Leber's Hereditary Optic Neuropathy (LHON)”, “GM 04281).” for “GM03858).”, “Huntington's” for “LHON”

Measured: pEC50

COc1ccc(C2=C(C)C(=O)C(C)=C(CCC(C)(C)O)C2=O)cc1 [Example 2, 2-(3-Hydroxy-3-methylbutyl)-6-(4-methoxyphenyl)-3,5-dimethylcyclohexa-2,5-diene-1,4-dione]
> 6.70: all assays above

CC1=C(CCC(C)(C)O)C(=O)C(c2ccc3ccccc3c2)=C(C)C1=O [Example 4, 2-(3-Hydroxy-3-methylbutyl)-3,5-dimethyl-6-(naphthalen-2-yl)cyclohexa-2,5-diene-1,4-dione]
> 6.70: all assays above

CC1=C(CCC(C)(C)O)C(=O)C(c2ccc(F)c(F)c2)=C(C)C1=O [Example 5, 2-(3,4-Difluorophenyl)-6-(3-hydroxy-3-methylbutyl)-3,5-dimethylcyclohexa-2,5-diene-1,4-dione]
> 6.70: all assays above

CC1=C(CCC(C)(C)O)C(=O)C(c2ccc(F)cc2)=C(C)C1=O [Example 6, 2-(4Fluorophenyl)-6-(3-hydroxy-3-methylbutyl)-3,5-dimethylcyclohexa-2,5-diene-1,4-dione]
> 6.70: all assays above

CC1=C(C)C(=O)C(c2ccc(C(F)(F)F)cc2)=C(CCC(C)(C)O)C1=O [Example 11, 2-(3-Hydroxy-3-methylbutyl)-5,6-dimethyl-3-(4-(trifluoromethyl)phenyl)cyclohexa-2,5-diene-1,4-dione]
> 6.70: all assays above

CC1=C(C)C(=O)C(c2ccc3ccccc3c2)=C(CCC(C)(C)O)C1=O [Example 13, 2-(3-Hydroxy-3-methylbutyl)-5,6-dimethyl-3-(naphthalen-2-yl)cyclohexa-2,5-diene-1,4-dione]
> 6.70: all assays above

CC1=C(C)C(=O)C(c2ccc(Cl)cc2)=C(CCC(C)(C)O)C1=O [Example 15, 2-(4-Chlorophenyl)-3-(3-hydroxy-3-methylbutyl)-5,6-dimethylcyclohexa-2,5-diene-1,4-dione]
> 6.70: all assays above

CCc1ccc(C2=C(CCC(C)(C)O)C(=O)C(C)=C(C)C2=O)cc1 [Example 16, 2-(4-Ethylphenyl)-3-(3-hydroxy-3-methylbutyl)-5,6-dimethylcyclohexa-2,5-diene-1,4-dione]
> 6.70: all assays above

CC1=C(C)C(=O)C(c2cccc(C(F)(F)F)c2)=C(CCC(C)(C)O)C1=O [Example 17, 2-(3-Hydroxy-3-methylbutyl)-5,6-dimethyl-3-(3-(trifluoromethyl)phenyl)cyclohexa-2,5-diene-1,4-dione]
> 6.70: all assays above

CC1=C(C)C(=O)C(c2ccc(C(C)(C)C)cc2)=C(CCC(C)(C)O)C1=O [Example 18, 2-(4-tert-Butylphenyl)-3-(3-hydroxy-3-methylbutyl)-5,6-dimethylcyclohexa-2,5-diene-1,4-dione]
> 6.70: all assays above

CC1=C(C)C(=O)C(c2cccc(F)c2)=C(CCC(C)(C)O)C1=O [Example 20, 2-(3-Fluorophenyl)-3-(3-hydroxy-3-methylbutyl)-5,6-dimethylcyclohexa-2,5-diene-1,4-dione]
> 6.70: all assays above

CC1=C(C)C(=O)C(CCC(C)(C)O)=C(CCCc2ccccc2)C1=O [Example 24, 2-(3-Hydroxy-3-methylbutyl)-5,6-dimethyl-3-(3-phenylpropyl)cyclohexa-2,5-diene-1,4-dione]
> 6.70: all assays above

Reference: US9486435B2, “(Het)aryl-p-quinone derivatives for treatment of mitochondrial diseases” (Edison Pharmaceuticals, Inc., priority 2008, dated 2016)
